Data as given in ChEMBL document CHEMBL5346908, “Recent advances of mitochondrial complex I inhibitors for cancer therapy: Current status and future perspectives” (Eur J Med Chem, 2023).
In brackets after ≈: the same amount, converted by molar mass. Values belong to the compound of their own block, whether it stands above or below them.

Experiments:
HT-29 [1] = assay: Inhibition of colony formation of human HT-29 cells incubated for 7 days in absence of glucose by crystal violet staining based analysis; assay type: functional, cell-based; conditions: HT-29, 168 h
HEK293 = assay: Cytotoxicity against human HEK293 cells assessed as reduction in cell proliferation incubated for 24 hrs by MTT assay; assay type: functional, cell-based; conditions: HEK293, 24 h
[2] = Cytotoxicity against Trichoplusia ni BTI-TN-5B1-4 cells assessed as reduction cell proliferation incubated for 24 hrs by MTT assay; assay type: toxicity, cell-based
HepG2 = assay: Cytotoxicity against human HepG2 cells assessed as reduction cell proliferation incubated for 24 hrs by MTT assay; assay type: functional, cell-based; conditions: HepG2, 24 h
HT-29 [3] = assay: Inhibition of colony formation of human HT-29 cells assessed as reduction in colonies incubated for 7 days by crystal violet staining based analysis; assay type: functional, cell-based; conditions: HT-29, 168 h
L1210 = assay: Antitumor activity against mouse L1210 cells xenografted in […] model assessed as prolongation of life span relative to control; assay type: functional
[4] = Inhibition of mitochondrial respiration in Sprague-Dawley rat liver; assay type: functional, tissue-based
[5] = Oral bioavailability in human; assay type: ADME, organism-based; conditions: in vivo
MCF7 = assay: Antiproliferative activity against human MCF7 cells assessed as reduction in cell viability incubated for 72 hrs by MTT assay; assay type: functional, cell-based; conditions: MCF7, 72 h
[6] = Half life in tumor of BALB/c mouse model xenografted with 4T1 cells at 100 mg/kg, ip measured after 4 hrs; assay type: ADME, organism-based
4T1 [7] = assay: Antitumor activity against mouse 4T1 cells xenografted in BALB/c mouse model assessed as peak tumor level at 100 mg/kg, ip measured after 4 hrs; assay type: functional
[8] = Half life in BALB/c mouse plasma at 100 mg/kg, ip; assay type: ADME, organism-based
4T1 [9] = assay: Antitumor activity against mouse 4T1 cells xenografted in BALB/c mouse model assessed as peak plasma level at 100 mg/kg, ip; assay type: functional
A-375 = assay: Antiproliferative activity against human A-375 cells assessed as inhibition of cell growth measured after 72 hrs by CCK8 assay; assay type: functional, cell-based; conditions: A-375, 72 h
[10] = Inhibition of NADH-ubiquinone oxidoreductase (unknown origin) binding to ETC complex 1; design: species or system Homo sapiens
MDA-MB-231 [11] = assay: Antiproliferative activity against human MDA-MB-231 cells assessed as reduction in cell viability incubated for 72 hrs by cell-titer glo assay; assay type: functional, cell-based; conditions: MDA-MB-231, 72 h
MDA-MB-435 = assay: Antiproliferative activity against human MDA-MB-435 cells assessed as reduction in cell viability incubated for 72 hrs by cell-titer glo assay; assay type: functional, cell-based; conditions: MDA-MB-435, 72 h
[12] = Antiproliferative activity against mouse L929 cells assessed as inhibition of cell growth incubated for 5 days by MTT assay; assay type: toxicity, cell-based
HCT-116 [13] = assay: Antiproliferative activity against human HCT-116 cells assessed as reduction in cell viability; assay type: functional, cell-based
KG-1 = assay: Antiproliferative activity against human KG-1 cells assessed as cell growth inhibition incubated for 72 hrs by MTT assay; assay type: functional, cell-based; conditions: KG-1, 72 h
THP-1 = assay: Antiproliferative activity against human THP-1 cells assessed as cell growth inhibition incubated for 72 hrs by MTT assay; assay type: functional, cell-based; conditions: THP-1, 72 h
HL-60 = assay: Antiproliferative activity against human HL-60 cells assessed as cell growth inhibition incubated for 72 hrs by MTT assay; assay type: functional, cell-based; conditions: HL-60, 72 h
NCI-H157 = assay: Antiproliferative activity against human NCI-H157 assessed as reduction in cell growth incubated for 72 hrs by Cell-titer glo assay; assay type: functional, cell-based; conditions: NCI-H157, 72 h
[14] = Antiproliferative activity against human DFCI024 cells assessed as reduction in cell growth incubated for 72 hrs by Cell-titer glo assay; assay type: functional, cell-based; conditions: DFCI024, 72 h
NCI-H1581 = assay: Antiproliferative activity against human NCI-H1581 cells assessed as reduction in cell growth incubated for 72 hrs by Cell-titer glo assay; assay type: functional, cell-based; conditions: NCI-H1581, 72 h
NCI-H1693 = assay: Antiproliferative activity against human NCI-H1693 assessed as reduction in cell growth incubated for 72 hrs by Cell-titer glo assay; assay type: functional, cell-based; conditions: NCI-H1693, 72 h
[15] = target: T1, Receptor tyrosine-protein kinase erbB-2 (Homo sapiens, UniProt P04626); assay: Inhibition of ERBB2 (unknown origin)
[16] = target: T1, Receptor tyrosine-protein kinase erbB-2; assay: Inhibition of ERBB2 (unknown origin) in human NCI-H1975 cells assessed as increase in mitochondrial ROS level incubated for 48 hrs by Western blot analysis
MDA-MB-231 [17] = assay: Inhibition of mitochondrial respiration in human MDA-MB-231 cells assessed as oxygen consumption rate incubated for 1 hr by Seahorse XF24 extracellular flux analyzer; assay type: functional, cell-based; conditions: MDA-MB-231, 1 h
HCT-116 [18] = assay: Inhibition of mitochondrial respiration in human HCT-116 cells assessed as oxygen consumption rate incubated for 1 hr by Seahorse XF24 extracellular flux analyzer; assay type: functional, cell-based; conditions: HCT-116, 1 h
NSCLC [19] = assay: Antitumor activity against human NSCLC cells xenografted in orthotopic lung tumor mouse model assessed as reduction in tumor growth incubated for 8 weeks; assay type: functional; conditions: 1344 h
NSCLC [20] = assay: Antiproliferative activity against human NSCLC cells assessed as reduction in cell viability incubated for 72 hrs by MTT assay; assay type: functional, cell-based
[21] = Antiproliferative activity against mouse TA3/Ha cells assessed as reduction in cell growth; assay type: functional, cell-based
NCI-H460 = assay: Antiproliferative activity against human NCI-H460 cells assessed as reduction in cell viability incubated for 48 hrs by cell titer glow assay; assay type: functional, cell-based; conditions: NCI-H460, 48 h
Melanoma cell line = assay: Antiproliferative activity against human melanoma cells assessed as reduction in cell viability incubated for 72 hrs by CellTiter-Fluor reagent based fluorescence analysis; assay type: functional

T1 sequence (P04626 whole entry): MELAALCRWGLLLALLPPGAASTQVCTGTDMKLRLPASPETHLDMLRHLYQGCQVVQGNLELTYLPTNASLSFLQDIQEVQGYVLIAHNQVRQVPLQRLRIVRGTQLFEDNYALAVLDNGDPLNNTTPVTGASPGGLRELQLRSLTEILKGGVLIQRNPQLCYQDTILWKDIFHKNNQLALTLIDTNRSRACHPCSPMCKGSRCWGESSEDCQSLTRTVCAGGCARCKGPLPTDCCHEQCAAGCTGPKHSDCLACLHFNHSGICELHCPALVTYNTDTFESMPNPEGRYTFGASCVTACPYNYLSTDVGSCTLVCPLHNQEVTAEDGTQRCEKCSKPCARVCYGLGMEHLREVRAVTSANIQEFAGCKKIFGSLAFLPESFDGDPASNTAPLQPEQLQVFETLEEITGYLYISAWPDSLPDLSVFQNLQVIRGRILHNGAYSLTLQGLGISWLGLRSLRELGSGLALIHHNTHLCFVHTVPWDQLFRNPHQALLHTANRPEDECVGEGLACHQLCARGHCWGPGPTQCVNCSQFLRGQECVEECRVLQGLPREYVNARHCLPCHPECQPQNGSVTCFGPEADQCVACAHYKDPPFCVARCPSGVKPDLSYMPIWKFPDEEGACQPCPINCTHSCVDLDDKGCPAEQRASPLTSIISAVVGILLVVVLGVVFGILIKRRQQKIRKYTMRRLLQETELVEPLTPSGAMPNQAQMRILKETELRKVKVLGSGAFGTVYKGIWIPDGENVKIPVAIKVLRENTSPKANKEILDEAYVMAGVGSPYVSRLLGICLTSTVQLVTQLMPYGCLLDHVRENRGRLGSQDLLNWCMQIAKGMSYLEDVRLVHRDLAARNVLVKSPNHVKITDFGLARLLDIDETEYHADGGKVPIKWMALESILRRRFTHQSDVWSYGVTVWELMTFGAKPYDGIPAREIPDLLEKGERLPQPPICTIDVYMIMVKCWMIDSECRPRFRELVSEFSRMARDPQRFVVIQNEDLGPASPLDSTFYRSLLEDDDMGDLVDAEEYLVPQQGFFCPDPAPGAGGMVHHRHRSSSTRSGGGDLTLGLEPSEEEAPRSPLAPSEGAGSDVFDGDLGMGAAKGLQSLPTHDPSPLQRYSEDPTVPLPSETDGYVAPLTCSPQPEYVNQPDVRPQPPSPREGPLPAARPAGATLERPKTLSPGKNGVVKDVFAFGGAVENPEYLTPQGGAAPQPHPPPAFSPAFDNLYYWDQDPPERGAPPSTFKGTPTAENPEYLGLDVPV

Structure (SMILES): C/C=C(\C)[C@H](O)[C@H](C)/C=C(C)/C=C/C/C(C)=C/Cc1nc(OC)c(OC)c(O)c1C [PIERICIDIN A]
IC50 (HT-29 [1]): 7.7 nM
IC50 (HEK293): 229000 nM
IC50 at 24 h [2]: 61 nM
IC50 (HepG2): 234000 nM
IC50 (HT-29 [3]): 6.4 nM

Structure (SMILES): CCCCCCCCCC[C@H](O)[C@H]1CC[C@H]([C@H]2CC[C@H]([C@H](O)CCCCCCCCCC[C@@H](O)CC3=C[C@H](C)OC3=O)O2)O1 [REL-SQUAMOCIN-G]
Activity (L1210): 38%
IC50 [4]: 9.5 nM

bioavailability [5]: 72.9%
Structure (SMILES): N=C(NC(=N)N1CCCC1)Nc1ccc(OC(F)(F)F)cc1 [LIXUMISTAT]

Structure (SMILES): CCCCCC[C@H](O)CCC[C@H](O)[C@H]1CC[C@H]([C@H]2CC[C@H]([C@H](O)CCCCCCCCCCCCC3=C[C@H](C)OC3=O)O2)O1 [SQUAMOCIN]
IC50 (MCF7): 0.8 ng/mL (≈ 1.28 nM)

half-life [6]: 1.2 h
half-life [8]: 1.1 h
IC50 (A-375): 100000 nM
Structure (SMILES): CCCCc1ccc(N)c(C)c1
Activity (4T1 [7]): 11 µM
Activity (4T1 [9]): 25 µM

IC50 (MDA-MB-231 [11]): 6900 nM
IC50 (MDA-MB-435): 11900 nM
Structure (SMILES): Cc1ccc(Sc2cccc3[nH]c4nc(N)nc(N)c4c23)cc1
Ki [10]: 840 nM

IC50 (HCT-116 [13]): 450 nM
Structure (SMILES): Cc1cc(OCc2nnc(SC3CCCC3)n2-c2cccnc2)ccc1-c1ccc(S(C)(=O)=O)cc1
IC50 at 5 days [12]: 1.3 nM

EC50 (THP-1): 3 nM
EC50 (HL-60): 3 nM
Structure (SMILES): Cc1nc(-c2nc(-c3ccc(OC(F)(F)F)cc3)no2)nn1Cc1cccc(N2CCC(S(C)(=O)=O)CC2)c1
EC50 (KG-1): 3 nM

IC50 (NCI-H157): 200 nM
IC50 (NCI-H1581): 200 nM
IC50 (NCI-H1693): 200 nM
Structure (SMILES): CCCCCn1c(=O)[nH]c2cc(C(=O)N3CCN(c4ccc([N+](=O)[O-])cc4)CC3)ccc2c1=O
IC50 [14]: 200 nM

IC50 [15]: 51 nM
IC50 [16]: 80 nM
Structure (SMILES): FC(F)(F)c1ccc(/C=C/c2nc(COc3ccc(CCCCn4ccnn4)cc3)co2)cc1 [MUBRITINIB]

Structure (SMILES): C=C(C)[C@H]1Cc2c(ccc3c2O[C@@H]2COc4cc(OC)c(OC)cc4[C@@H]2C3=O)O1 [ROTENONE]
IC50 at 5 days [12]: 16.1 nM
IC50 [4]: 19.3 nM

IC50 (MDA-MB-231 [17]): 2100 nM
IC50 (HCT-116 [18]): 900 nM
Structure (SMILES): O[C@@H](CNC[C@H](O)[C@H]1CCc2cc(F)ccc2O1)[C@@H]1CCc2cc(F)ccc2O1

Structure (SMILES): O=C(NCCCCCCCCCC[P+](c1ccccc1)(c1ccccc1)c1ccccc1)c1nn(Cc2ccc(Cl)cc2Cl)c2ccccc12
ED50 (NSCLC [19]): 7.5 µmol/kg
IC50 (NSCLC [20]): 740 nM

Structure (SMILES): CC1(C)C=CC(=O)c2c(O)c3c(c(O)c21)CC=CC3
IC50 [21]: 13000 nM

EC50 (NCI-H460): 3 nM
IC50 (Melanoma cell line): 2 nM
Structure (SMILES): Cc1cc(-c2nc(-c3ccc(OC(F)(F)F)cc3)no2)nn1Cc1ccnc(N2CCN(C3CC3)CC2)c1
